For eight compounds, inhibition results are on record in US10093630B2, “Pyrazole compounds and methods of making and using same” (ABIDE THERAPEUTICS, INC., priority 2014, dated 2018).

Assay in all cases: In vitro competitive activity-based protein profiling (gel-based, FP-Rh or HT-01 probe)
What all share (assay type): biochemical

One assay concerns the target T1, ABHD6 (Mus musculus, UniProt Q8R2Y0).
T1 construct: Proteomes (mouse brain membrane fraction or cell lysates); from tissue; host or cells: mouse brain membrane fraction (or cell lysates, not specified)
T1 sequence (Q8R2Y0 1-336): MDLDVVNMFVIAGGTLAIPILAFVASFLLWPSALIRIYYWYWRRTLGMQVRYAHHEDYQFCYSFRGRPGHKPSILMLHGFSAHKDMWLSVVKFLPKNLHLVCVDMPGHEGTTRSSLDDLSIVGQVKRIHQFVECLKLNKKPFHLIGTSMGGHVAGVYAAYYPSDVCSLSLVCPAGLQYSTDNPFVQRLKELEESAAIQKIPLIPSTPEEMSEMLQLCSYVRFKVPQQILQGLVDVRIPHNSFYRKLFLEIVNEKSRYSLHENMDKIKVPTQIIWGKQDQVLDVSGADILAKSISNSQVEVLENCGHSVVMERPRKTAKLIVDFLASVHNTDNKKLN
To be noted: for inhibition at 1 µM: 1 μM inhibitor, read-out: % Inhibition at 1 μM, C = ABHD6; for inhibition at 10 µM: 10 μM inhibitor, read-out: % Inhibition at 10 μM, C = ABHD6. The essentials: (§1)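 Read-out: fluorescent band intensity on SDS-PAGE gels, reporting remaining serine hydrolase activity. Before that, proteome (mouse brain membranes or cell lysates, 1.0 mg/mL) saw a range of inhibitor concentrations for 30 min at 37° C, followed by 30 min probe labelling (FP-Rh or HT-01).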

The target in a further assay is T2, FAAH (Mus musculus, UniProt O08914).
T2 construct: Proteomes (mouse brain membrane fraction or cell lysates); from tissue; host or cells: mouse brain membrane fraction (or cell lysates, not specified)
T2 sequence (O08914 1-579): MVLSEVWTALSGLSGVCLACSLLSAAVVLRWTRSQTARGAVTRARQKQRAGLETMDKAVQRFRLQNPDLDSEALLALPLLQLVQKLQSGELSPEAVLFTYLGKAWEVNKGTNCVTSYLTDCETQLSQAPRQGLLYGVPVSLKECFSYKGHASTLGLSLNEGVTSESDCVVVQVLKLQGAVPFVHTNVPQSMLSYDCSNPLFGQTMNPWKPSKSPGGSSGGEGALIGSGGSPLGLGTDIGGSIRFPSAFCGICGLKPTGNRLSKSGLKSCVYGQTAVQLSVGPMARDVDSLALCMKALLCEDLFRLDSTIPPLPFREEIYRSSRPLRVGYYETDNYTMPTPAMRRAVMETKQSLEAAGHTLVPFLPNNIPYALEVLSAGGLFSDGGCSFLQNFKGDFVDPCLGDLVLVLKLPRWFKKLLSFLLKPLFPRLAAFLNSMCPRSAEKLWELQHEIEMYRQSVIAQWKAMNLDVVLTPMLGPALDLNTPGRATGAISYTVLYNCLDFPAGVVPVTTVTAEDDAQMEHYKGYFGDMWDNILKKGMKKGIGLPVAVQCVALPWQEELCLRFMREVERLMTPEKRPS
To be noted: for inhibition at 1 µM: 1 μM inhibitor, read-out: % Inhibition at 1 μM, B = FAAH; for inhibition at 10 µM: 10 μM inhibitor, read-out: % Inhibition at 10 μM, B = FAAH. The essentials:
as §1

In another assay the target is T3, MAGL (Mus musculus, UniProt O35678).
T3 construct: Proteomes (mouse brain membrane fraction or cell lysates); from tissue; host or cells: mouse brain membrane fraction (or cell lysates, not specified)
T3 sequence (O35678 1-303): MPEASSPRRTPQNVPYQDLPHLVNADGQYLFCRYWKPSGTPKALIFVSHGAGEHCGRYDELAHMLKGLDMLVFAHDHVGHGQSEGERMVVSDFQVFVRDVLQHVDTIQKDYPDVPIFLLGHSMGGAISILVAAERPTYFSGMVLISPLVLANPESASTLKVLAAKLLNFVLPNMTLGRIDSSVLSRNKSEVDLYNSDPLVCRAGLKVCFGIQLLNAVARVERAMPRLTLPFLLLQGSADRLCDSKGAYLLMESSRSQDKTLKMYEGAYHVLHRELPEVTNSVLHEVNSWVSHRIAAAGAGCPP
To be noted: for inhibition at 1 µM: 1 μM inhibitor; for inhibition at 10 µM: 10 μM inhibitor. The essentials:
as §1

Another assay addresses T4, PLA2G7 (Mus musculus, UniProt Q60963).
T4 construct: Proteomes (mouse brain membrane fraction or cell lysates); from tissue; host or cells: mouse brain membrane fraction (or cell lysates, not specified)
T4 sequence (Q60963 22-440): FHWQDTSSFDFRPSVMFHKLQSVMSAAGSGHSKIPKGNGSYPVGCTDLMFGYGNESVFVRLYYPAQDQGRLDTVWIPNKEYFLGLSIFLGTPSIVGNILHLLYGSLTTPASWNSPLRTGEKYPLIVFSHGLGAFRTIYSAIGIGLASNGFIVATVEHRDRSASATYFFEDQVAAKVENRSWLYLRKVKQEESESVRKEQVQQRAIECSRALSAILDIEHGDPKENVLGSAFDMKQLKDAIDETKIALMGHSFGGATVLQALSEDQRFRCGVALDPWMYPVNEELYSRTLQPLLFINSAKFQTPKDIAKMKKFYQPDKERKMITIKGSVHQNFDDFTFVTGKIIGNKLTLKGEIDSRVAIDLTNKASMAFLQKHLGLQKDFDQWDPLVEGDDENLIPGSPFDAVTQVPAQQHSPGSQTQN
To be noted: for inhibition at 1 µM: 1 μM inhibitor, read-out: % Inhibition at 1 μM, D = PLA2G7; for inhibition at 10 µM: 10 μM inhibitor, read-out: % Inhibition at 10 μM, D = PLA2G7. The method in brief:
as §1

Turning to `O=C(c1ccccc1)N1CCN(C(=O)n2cc(Cl)cn2)CC1` [Example 187, (4-Benzoylpiperazin-1-yl)(4-chloro-1H-pyrazol-1-yl)methanone], the inhibition at 1 µM at ABHD6 is less than 25%; at FAAH it was less than 25%; at MAGL it was 25 to 75%; at PLA2G7, greater than 75%. Also, the inhibition at 10 µM on ABHD6 is 25 to 75%; on FAAH, greater than 75%; on MAGL it was greater than 75%; at PLA2G7 it was greater than 75%.
In the case of `Cc1cnn(C(=O)N(C)CCN(C)Cc2ccccc2)c1` [Example 171, N-(2-(Benzyl(methyl)amino)ethyl)-N,4-dimethyl-1H-pyrazole-1-carboxamide], the inhibition at 10 µM on ABHD6, at FAAH, on MAGL and at PLA2G7 was less than 25% throughout.
As for `CN1CCN(C(=O)n2cc(C#N)cn2)CC1` [Example 175, 1-(4-Methylpiperazine-1-carbonyl)-1H-pyrazole-4-carbonitrile], the inhibition at 1 µM at ABHD6 is greater than 75%; on FAAH it was 25 to 75%; at MAGL it was 25 to 75%; on PLA2G7 it was less than 25%. The inhibition at 10 µM on ABHD6, on FAAH, at MAGL and at PLA2G7 was greater than 75% each time.
On to `Cc1cnn(C(=O)N2CCCN(C(=O)OC(C)(C)C)CC2)c1` [Example 26, tert-Butyl 4-(4-methyl-1H-pyrazole-1-carbonyl)-1,4-diazepane-1-carboxylate], for which the inhibition at 1 µM on ABHD6 was 25 to 75%; on FAAH, 25 to 75%; at MAGL, less than 25%; on PLA2G7 it was less than 25%. The inhibition at 10 µM is greater than 75% at ABHD6, greater than 75% on FAAH, 25 to 75% on MAGL and less than 25% at PLA2G7.
For `O=C(c1cnn(C(=O)N2CCN(Cc3ccncc3)CC2)c1)N1CCC1` [Example 87, Azetidin-1-yl(1-(4-(pyridin-4-ylmethyl)piperazine-1-carbonyl)-1H-pyrazol-4-yl)methanone], the inhibition at 1 µM at ABHD6, on FAAH, at MAGL and on PLA2G7 was less than 25% in each case. In addition, the inhibition at 10 µM on ABHD6 was greater than 75%; on FAAH it was greater than 75%; at MAGL it was less than 25%; on PLA2G7 it was greater than 75%.
Consider `N#Cc1cnn(C(=O)N2CCN(Cc3ccc(-c4ccccc4)cc3OCc3ccccc3)CC2)c1` [Example 146, 1-(4-((3-(Benzyloxy)biphenyl-4-yl)methyl)piperazine-1-carbonyl)-1H-pyrazole-4-carbonitrile], for which the inhibition at 1 µM on ABHD6 is greater than 75%; on FAAH it was greater than 75%; on MAGL it was greater than 75%; at PLA2G7 it was less than 25%. For the same compound, the inhibition at 10 µM on ABHD6, on FAAH, at MAGL and on PLA2G7 was greater than 75% in each case.
For `O=C(N1CCN(Cc2ccc(CN3CCOCC3)cc2)CC1)n1cc(Cl)cn1` [Example 214, (4-Chloro-1H-pyrazol-1-yl)(4-(4-(morpholinomethyl)benzyl)piperazin-1-yl)methanone], the inhibition at 1 µM at ABHD6, at FAAH, on MAGL and at PLA2G7 was greater than 75% each time.
With `O=C(c1cnn(C(=O)N2CCN(Cc3ccncc3)CC2)c1)N1CCOCC1` [Example 52, (4-(Morpholine-4-carbonyl)-1H-pyrazol-1-yl)(4-(pyridin-4-ylmethyl)piperazin-1-yl)methanone], the figures for the inhibition at 1 µM on ABHD6 and at PLA2G7 were 25 to 75% and less than 25%, respectively. Further, the inhibition at 10 µM was greater than 75% on ABHD6, less than 25% at FAAH, less than 25% at MAGL and greater than 75% at PLA2G7.
